Data published in US20180208622A1, “STABLE CRYSTALLINE FORM OF REGADENOSON” (SUN PHARMACEUTICAL INDUSTRIES LIMITED, priority 2015, published 2018).
One block for each molecule: values may come before it.

Columns and labels:
[1] = WO2008143667A1, cited from earlier work
[2] = Stability studies of crystal Form S, followed by XRPD; format: physicochemical
Procedure: XRD: X-ray powder diffraction analyses were carried out on a PANalytical Empyrean X-ray powder diffractometer using Cu K alpha radiation. The instrument was equipped with a line focus X-ray tube, and the voltage and amperage were set to 45 kV and 40 mA respectively. The scanning rate was set as 10 second per step and step size is set as 0.01°. The diffractometer was equipped with Pixcel^1D solid state detector and rotating sample stage. X-ray diffractometer was used to record diffractogram from 4° to 40° (2-theta).

SMILES: CNC(=O)c1cnn(-c2nc(N)c3ncn([C@@H]4O[C@H](CO)[C@@H](O)[C@H]4O)c3n2)c1 [Form A, adenosine, 2-[4-[(methylamino)carbonyl]-1H-pyrazol-1-yl]]
stability of the crystalline form ([1]; among Form A, Form B, Form C and amorphous product): most stable form

change in XRPD under stability conditions ([2]; 25° C. and 60% relative humidity for more than 6 months (FIG. 3)): no significant change
change in XRPD in accelerated stability studies ([2]; 40° C. and 75% relative humidity for more than 2 months (FIG. 2)): did not change significantly
stability when stored ([2]; stored at 25° C. and 60% relative humidity for at least 6 months): stable
SMILES: CNC(=O)c1cnn(-c2nc(N)c3ncn([C@@H]4O[C@H](CO)C(O)C4O)c3n2)c1 (some centres unmarked) [Form S, adenosine, 2-[4-[(methylamino)carbonyl]-1H-pyrazol-1-yl]]

SMILES: CNC(=O)c1cnn(-c2nc(N)c3ncn([C@@H]4O[C@H](CO)[C@@H](O)[C@H]4O)c3n2)c1 [polymorph C, adenosine, 2-[4-[(methylamino)carbonyl]-1H-pyrazol-1-yl]]
behaviour at elevated temperatures ([1]; elevated temperatures): desolvates to an unstable form
